# In US20220218647A1, “DIETARY BUTYRATE” (SOCIETE DES PRODUITS NESTLE S.A., priority 2019, published 2022):
# How the values were obtained:
# [1] = system: rabbit gastric lipase (RGL) followed by porcine pancreatic lipase (PPL); assay: Sequential in vitro digestion in simulated gastric fluid (SGF) followed by SIF, pH-stat; assay type: in vitro ADME
# From the text: (§1) An emulsion was then created using an ultrasonic probe homogeniser.
# [2] = molecular target: T1, porcine pancreatic lipase (PPL) (Sus scrofa, UniProt P00591); conditions: pig, 3 h, pH 11.5
# T1 sequence (P00591 1-450): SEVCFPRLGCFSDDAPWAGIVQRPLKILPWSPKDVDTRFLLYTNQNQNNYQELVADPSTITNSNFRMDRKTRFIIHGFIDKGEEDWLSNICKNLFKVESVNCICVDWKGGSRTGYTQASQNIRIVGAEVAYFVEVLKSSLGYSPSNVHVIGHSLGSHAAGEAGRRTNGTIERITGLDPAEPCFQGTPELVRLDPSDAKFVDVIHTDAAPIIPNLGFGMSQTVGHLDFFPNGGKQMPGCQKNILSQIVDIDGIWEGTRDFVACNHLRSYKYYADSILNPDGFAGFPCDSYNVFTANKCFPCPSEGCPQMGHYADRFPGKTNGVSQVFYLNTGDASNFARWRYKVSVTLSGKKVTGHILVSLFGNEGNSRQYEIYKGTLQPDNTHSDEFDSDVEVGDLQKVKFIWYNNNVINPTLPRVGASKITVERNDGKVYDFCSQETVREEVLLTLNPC
# T1 sequence (P02703 23-112 partner): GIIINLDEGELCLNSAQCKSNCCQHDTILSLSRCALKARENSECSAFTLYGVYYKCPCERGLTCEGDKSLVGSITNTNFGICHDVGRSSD
# From the text: Because many fatty acids are only partially ionised at pH 6.8, direct titration gives only partial picture of the extent of lipid digestion, instead back titration to pH 11.5 or GC-FAME analysis is required to estimate the full extent of digestion.
# [3] = molecular target: T1, porcine pancreatic lipase (PPL); assay: In vitro lipid digestion in simulated intestinal fluid (SIF), pH-stat; assay type: in vitro ADME; design: by porcine pancreatic lipase (from pancreatin); from tissue; host or cells: pancreatin (pig pancreas extract); conditions: SIF alone; emulsion containing 200 mg fat, pH 6.8, 37° C.
# From the text: as §1
structure (smiles),measurement,setting,value
CCCC(=O)OCC(COC(=O)CCC)OC(=O)CCC [tributyrin],initial lipolysis rate in SIF compartment,"[1]; SGF-SIF sequential digestion, 200 mg fat",44.1 ± 8.8 µmol/min
same,hydrolysis in the stomach,[1]; gastric compartment of the model,extensive hydrolysis
same,lipolysis by gastric lipase,[1]; indicated by decreased total fatty acid release during SIF lipolysis after pre-exposure to RGL in SGF,~60%
same,extent of digestion,[2],101.5±0.9%
same,initial rate of lipolysis,[3],223 ± 59 µmol/min
